Results: patent US8058431B2, “Fluorescent double stranded DNA binding dyes” (Roche Diagnostics Operations, Inc., priority 2006, dated 2011)

What was measured:
genomic DNA = assay: Light stability: fluorescence of a mixture of dye and genomic DNA during continuous light exposure; format: physicochemical; conditions: for fluorescence during continuous light exposure: dye + genomic DNA
Method: The light stability of R27, which is representative for the nine described dyes, was compared to established dyes already used for such applications. The fluorescence of a mixture of the respective dye and genomic DNA was measured during continuous light exposure.

[1] = Bleaching of dye solution during a typical PCR protocol on a real-time PCR instrument; format: physicochemical; conditions: excitation for fluorescence measurement and repeated temperature changes between 55 and 95° C., LIGHTCYCLER 480

Compound | fluorescence during continuous light exposure (genomic DNA; light exposure 0 min) [%] | fluorescence during continuous light exposure (genomic DNA; light exposure 10 min) [%] | fluorescence during continuous light exposure (genomic DNA; light exposure 30 min) [%] | fluorescence during continuous light exposure (genomic DNA; light exposure 60 min) [%] | fluorescence during continuous light exposure (genomic DNA; light exposure 180 min) [%] | fluorescence during continuous light exposure (genomic DNA; light exposure 300 min) [%] | light stability compared to established dyes (genomic DNA; versus SYBR Green I and LC Green Plus) | bleaching of the dye [1]
COc1cc2c(cc1OC)N(C)C(CCCC[N+](C)(C)C)=N/C2=C\c1sc2ccccc2[n+]1C.[I-].[I-] [R 27] | 100 | 99 | 98 | 99 | 97 | 96 | distinctly higher | no recognizable bleaching
CCCN(CCCN(C)C)c1cc(C=C2Sc3ccccc3N2C)c2ccccc2[n+]1-c1ccccc1 [SYBR Green I, [2-[N-(-3-dimethylaminopropyl)-N-propylamino]-4-[2,3-dihydro-3-methyl-(benzo-1,3-thiazol-2-yl)-methylidene]-1-phenyl-quinolinium]+, reference compound] | 100 | 87 | 77 | 70 | 40 | 24 | – | –
